Assay in all cases: NCI-60 cell line screen, 48 h
Assay [1] relates to ACHN renal.
Assay [2] has as its system CCRF-CEM leukemia.
The test system of assay [3] is LOX IMVI melanoma.
Assay [4] relates to M19-MEL melanoma.
The test system of assay [5] is OVCAR-8 ovarian.
The subject of assay [6] is RPMI-8226 leukemia.
The test system of assay [7] is SF-295 CNS.
Assay [8] has as its system SW-620 colon.
For assay [9], the system named is UACC-257 melanoma.
Assay [10] has as its system KM20L2 colon.

Structures are written as SMILES.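 How tested: cells in 96-well plates exposed to compound for 48 hours at five concentrations. GI50 is the concentration that inhibits growth by half. TGI: total growth inhibition.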

For `CC1(C)C2C/C(=C\c3ccccc3)C(=O)C1C2` (centres undefined), the TGI in assay [1], in assay [2], in assay [3], in assay [4], in assay [5] and in assay [6] was over 100 µM each time. The TGI in assay [7], in [8] and in assay [9] was over 100 µM throughout.
As to `c1ccc(SC(CCCCOC2CCCCO2)Sc2ccccc2)cc1` (centres undefined), the TGI is over 100 µM in assay [1]; 93.1 µM in assay [2]; over 100 µM in assay [3]; over 100 µM in [4]; over 100 µM in assay [5]; over 100 µM in assay [6]. For the same compound, the TGI in assay [7], in assay [8] and in [9] was over 100 µM throughout.
For `O=C(/C=C1/NC(=O)CS1)Nc1ccccc1`, the TGI in [2], in [10], in [4], in [5], in assay [6] and in assay [7] was over 100 µM in each case. The compound also gave a TGI in assay [8] of over 100 µM.
As for `O=C1C[C@@H]2CCCC[C@@H]2C12SCCS2`, the TGI in [1], in [2], in assay [3], in assay [4], in assay [5] and in assay [6] was over 100 µM each time. Besides, the TGI in assay [7], in assay [8] and in [9] was over 100 µM in each case.
On to `CC(C)C[C@@H]1NC(=O)[C@@H]2CCCN2C(=O)[C@@H]2CCCN2C(=O)[C@H](CC(C)C)NC(=O)[C@H](CO)NC(=O)[C@H](CCCCN)NC(=O)[C@H]([C@H](C)O)NC(=O)[C@@H]2CCCC[C@@H](NC1=O)C(=O)N[C@@H](Cc1ccccc1)C(=O)N1CCC[C@H]1C(=O)N[C@@H](CC(=O)O)C(=O)NCC(=O)N[C@@H](CCCN=C(N)N)C(=O)N2`, for which the GI50 in assay [1], in assay [2], in assay [3], in [5], in assay [6] and in [7] was over 50 µM each time. The GI50 in assay [8] and in assay [9] was over 50 µM each time. Further, the TGI in [1], in [2], in [3], in [5], in [6] and in assay [7] was over 50 µM in each case. Further, the TGI in assay [8] and in assay [9] was over 50 µM in each case.
`COc1ccc2c(c1)CC1c3c(cc4c(c3-2)OCO4)CCN1C` (centres undefined): the TGI is 36.1 µM in assay [1]; over 100 µM in assay [2]; over 100 µM in assay [10]; 45.2 µM in assay [4]; 70.4 µM in assay [5]; 64.2 µM in assay [6]. The values for the TGI in assay [7], in assay [8] and in assay [9] were 50 µM, 59.8 µM and 57.5 µM, respectively.
On to `COCCNC(=O)c1ccc(-c2nc3ccc4[nH]ncc4c3c3c2CCCC3)cc1`, for which the GI50 in assay [1] was 1.14 µM; in assay [2] it was 2.44 µM; in assay [3], 2.88 µM; in [5], 2.64 µM; in assay [6], 1.74 µM; in assay [7], 2.7 µM. For the same compound, the GI50 in assay [8] was 1.83 µM; in [9] it was 5.38 µM. The TGI in [1] is 57.7 µM; in assay [2], 16.6 µM; in [3], over 100 µM; in assay [5], over 100 µM; in assay [6], 7.03 µM; in assay [7], 47.7 µM. Moreover, the values for the TGI in assay [8] and in assay [9] were 13.9 µM and over 100 µM, respectively.
As to `OCCNCCNc1c2ccccc2nc2oc3ccccc3c12`, the GI50 in assay [1] was 5.82 µM; in assay [2] it was 8.97 µM; in [3], 5.87 µM; in [5], 9.46 µM; in assay [6] it was 4.76 µM; in assay [7] it was 6.02 µM. The GI50 in assay [8] is 5.23 µM; in assay [9], 15.6 µM. The TGI in assay [1] was 32.7 µM; in assay [2], 41.9 µM; in assay [3], 20.6 µM; in assay [5], over 100 µM; in assay [6], 21.6 µM; in assay [7], 29.6 µM. Also, the TGI amounted to 24.4 µM in assay [8] and 33.2 µM in assay [9].
Regarding `CCCCCCCCCCCC[n+]1ccc(C(N)=O)cc1`, the GI50 in assay [1] was 6.06 µM; in assay [2] it was 3.61 µM; in assay [3], 2.4 µM; in assay [5] it was 3.34 µM; in [6], 1.34 µM; in assay [7] it was 2.8 µM. Further, the GI50 is 3.16 µM in assay [8] and 4.24 µM in [9]. Besides, the TGI in assay [1] was 22 µM; in assay [2], over 100 µM; in assay [3], 13.2 µM; in assay [5], 13.1 µM; in assay [6], 4.86 µM; in assay [7] it was 11.6 µM. The TGI in assay [8] was 14.4 µM; in assay [9], 17.8 µM.
Take `O=C(/C=C/c1ccc(C(F)(F)F)cc1)c1ccc(Nc2nc(NCCO)nc(N3CCOCC3)n2)cc1`: the GI50 in assay [1] is 1.86 µM; in [2], 2.41 µM; in assay [3], 1.67 µM; in [5] it was 3.25 µM; in assay [6], 2.07 µM; in [7], 2.67 µM. Moreover, the GI50 was 1.92 µM in assay [8] and 3.98 µM in assay [9]. In addition, the TGI in assay [1] was determined as 3.86 µM; in assay [2], 6.61 µM; in assay [3] it was 3.11 µM; in assay [5] it was 12.4 µM; in [6], 5.71 µM; in assay [7], 7.6 µM. Moreover, the TGI is 4.05 µM in assay [8] and 17.8 µM in assay [9].
As to `N#CC1=C(N)Oc2c(sc3c(F)cccc23)C1c1ccc(F)cc1` (centres undefined), the GI50 in assay [1] was 0.752 µM; in assay [2] it was 0.47 µM; in [3], 0.727 µM; in [5], 1.61 µM; in [6] it was 1.05 µM; in assay [7] it was 0.364 µM. The figures for the GI50 in [8] and in assay [9] were 0.531 µM and 16.6 µM, respectively. Besides, the TGI turned out to be 16.1 µM in assay [1]; 25.3 µM in assay [2]; 12.2 µM in [3]; 22.5 µM in assay [5]; 14.7 µM in [6]; 6.28 µM in assay [7]. Further, the TGI in [8] came out at 16.3 µM; in assay [9], 39.5 µM.

For the origin of these results see PubChem BioAssay (NCI).
